Data reported in DBAASP.
≈ marks a conversion by molar mass, not a printed value. One block for each compound: values may come before it.

Columns and labels:
Experiment in all cases: ≥ marks a high value that may be exact or a test limit, other limits are often not marked, values filed in µg/mL are converted to µM
[1] = system: Staphylococcus aureus MTCC 3160
[2] = system: Alcaligenes faecalis MTCC 1937
[3] = system: Klebsiella aerogenes MTCC 111
[4] = system: Escherichia coli K12 MG1655
[5] = system: Citrobacter koseri MTCC 1657
[6] = system: Pluralibacter gergoviae MTCC 3826
[7] = system: Klebsiella oxytoca MTCC 2275
[8] = system: Shigella flexneri MTCC 1457
[9] = system: Salmonella enterica MTCC 9844
[10] = system: Stenotrophomonas maltophilia MTCC 1890
[11] = system: Alkalihalobacillus alcalophilus MTCC 860
[12] = system: Klebsiella pneumoniae MTCC 7407
[13] = system: Haemophilus influenzae MTCC 621
[14] = system: Citrobacter freundii MTCC 1658
[15] = system: Proteus mirabilis MTCC 3158
[16] = system: Pseudomonas aeruginosa MTCC 3542
[17] = system: Corynebacterium glutamicum MTCC 2679
[18] = system: Bordetella bronchiseptica MTCC 6837
[19] = system: Acinetobacter baumannii MTCC 9829
[20] = system: Enterococcus faecalis MTCC 439
[21] = system: Salmonella enterica subsp. enterica serovar Typhimurium ATCC 14028
[22] = system: Shigella boydii MTCC 11947
[23] = system: Vibrio cholerae MTCC 3904
[24] = system: Proteus vulgaris MTCC 1771
[25] = system: Staphylococcus haemolyticus MTCC 3383
[26] = system: Acinetobacter baumannii CCARM 12035
[27] = system: Salmonella typhimurium CCARM 8009
[28] = system: Salmonella typhimurium KCTC 1926
[29] = system: Enterococcus faecalis KCTC 2011
[30] = system: Escherichia coli KCTC 1682
[31] = system: Escherichia coli CCARM 1229
[32] = system: Pseudomonas aeruginosa KCTC 1637
[33] = system: Pseudomonas aeruginosa CCARM 2095
[34] = system: Staphylococcus aureus KCTC 1621
[35] = system: Bacillus subtilis KCTC 3068
[36] = system: Bacillus cereus ATCC 14579
[37] = system: Bacillus licheniformis ATCC 14580
[38] = system: Bacillus amyloliquefaciens ATCC 23842
[39] = system: Enterococcus faecium 5F-10
[40] = system: Staphylococcus aureus ATCC 29213
[41] = system: Proteus mirabilis ATCC 35659
[42] = system: Escherichia coli ATCC 25922
[43] = system: Enterococcus faecalis 1F-1
[44] = system: Salmonella enterica ATCC H9812
[45] = system: Bacillus subtilis ATCC 6051
[46] = system: Pseudomonas aeruginosa PAO1
[47] = system: Staphylococcus epidermidis
Listeria monocytogenes = system: Listeria monocytogenes
[48] = system: Enterococcus faecalis ATCC 29212
[49] = system: Staphylococcus aureus ATCC 25923
[50] = system: Salmonella enterica subsp. enterica serovar Typhimurium ATCC 14028s
Escherichia coli UB1005 = system: Escherichia coli UB1005
[51] = system: Pseudomonas aeruginosa K799

SMILES: CC(C)C[C@H](NC(=O)[C@H](Cc1cnc[nH]1)NC(=O)[C@H](CC(N)=O)NC(=O)[C@H](Cc1c[nH]c2ccccc12)NC(=O)[C@H](CC(=O)O)NC(=O)[C@@H](N)CCC(=O)O)C(=O)NCC(=O)N[C@@H](C)C(=O)N[C@@H](C)C(=O)N[C@H](C(=O)N[C@@H](Cc1cnc[nH]1)C(=O)N[C@H](C(=O)N[C@@H](CC(C)C)C(=O)N[C@@H](CCCCN)C(=O)N[C@@H](Cc1cnc[nH]1)C(=O)N[C@H](C(=O)N[C@@H](Cc1ccc(O)cc1)C(=O)N[C@@H](CCCCN)C(=O)O)C(C)C)[C@@H](C)O)C(C)C [EDWNHLGAAVHTLKHVYK]
MIC [1]: ≥ 60.4 µM
MIC [2]: ≥ 60.4 µM
MIC [3]: ≥ 60.4 µM
MIC [4]: ≥ 60.4 µM
MIC [5]: ≥ 60.4 µM
MIC [6]: ≥ 60.4 µM
MIC [7]: ≥ 60.4 µM
MIC [8]: ≥ 60.4 µM
MIC [9]: ≥ 60.4 µM
MIC [10]: ≥ 60.4 µM
MIC [11]: ≥ 60.4 µM
MIC [12]: ≥ 60.4 µM
MIC [13]: ≥ 60.4 µM
MIC [14]: ≥ 60.4 µM
MIC [15]: ≥ 60.4 µM
MIC [16]: ≥ 60.4 µM
MIC [17]: ≥ 60.4 µM
MIC [18]: ≥ 60.4 µM
MIC [19]: ≥ 60.4 µM
MIC [20]: ≥ 60.4 µM
MIC [21]: > 60.4 µM
MIC [22]: ≥ 60.4 µM
MIC [23]: ≥ 60.4 µM
MIC [24]: ≥ 60.4 µM
MIC [25]: ≥ 60.4 µM

SMILES: CC(C)C[C@H](NC(=O)[C@H](CC(C)C)NC(=O)[C@H](CCC(=O)O)NC(=O)[C@H](CC(=O)O)NC(=O)[C@@H](NC(=O)[C@@H](N)CCCN=C(N)N)C(C)C)C(=O)N[C@@H](CO)C(=O)O [RVDELLS]
MIC [36]: ≥ 154 µM
MIC [37]: ≥ 154 µM
MIC [38]: ≥ 154 µM
MIC [39]: ≥ 154 µM
MIC [40]: > 154 µM
MIC [41]: ≥ 154 µM
MIC [42]: > 154 µM
MIC [43]: ≥ 154 µM
MIC [44]: ≥ 154 µM
MIC [45]: ≥ 154 µM
MIC [46]: > 154 µM

SMILES: CC[C@H](C)[C@H](NC(=O)[C@H](CCCN=C(N)N)NC(=O)[C@H](CS)NC(=O)[C@H](CC(C)C)NC(=O)[C@H](CCCN=C(N)N)NC(=O)[C@@H](N)CCCN=C(N)N)C(=O)N[C@H](C(=O)N[C@H](C(=O)N[C@H](C(=O)N[C@@H](CCCN=C(N)N)C(=O)N[C@H](C(=O)N[C@@H](CS)C(=O)N[C@@H](CCCN=C(N)N)C(=O)N[C@@H](CCCN=C(N)N)C(=O)O)C(C)C)[C@@H](C)CC)C(C)C)C(C)C [RRLCRIVVIRVCRR]
MIC [47]: 2.22 µM (≈ 4 µg/mL)
MIC (Listeria monocytogenes): 0.278 µM (≈ 0.5 µg/mL)
MIC [48]: 2.22 µM (≈ 4 µg/mL)
MIC [49]: > 35.6 µM
MIC [50]: 17.8 µM (≈ 32 µg/mL)
MIC (Escherichia coli UB1005): 2.22 µM (≈ 4 µg/mL)
MIC [51]: 8.9 µM (≈ 16 µg/mL)

The next lines start with the values.

MIC [26]: 8 µM (≈ 20.6 µg/mL)
MIC [27]: 4 µM (≈ 10.3 µg/mL)
MIC [28]: 2 µM (≈ 5.16 µg/mL)
MIC [29]: ≥ 128 µM
MIC [30]: 1 µM (≈ 2.58 µg/mL)
MIC [31]: 2 µM (≈ 5.16 µg/mL)
MIC [32]: 2 µM (≈ 5.16 µg/mL)
MIC [33]: 8 µM (≈ 20.6 µg/mL)
MIC [34]: 16 µM (≈ 41.3 µg/mL)
MIC [35]: 16 µM (≈ 41.3 µg/mL)
SMILES: CC[C@H](C)[C@H](NC(=O)CNC(=O)[C@H](CC(=O)O)NC(=O)[C@H](CCCN=C(N)N)NC(=O)[C@@H](NC(=O)[C@H](CC(N)=O)NC(=O)[C@H](CCCN=C(N)N)NC(=O)CNC(=O)[C@@H](NC(=O)[C@H](CCCCN)NC(=O)[C@H](CCC(=O)O)NC(=O)[C@@H](NC(=O)[C@H](CCCCN)NC(=O)[C@H](CCCCN)NC(=O)[C@H](C)NC(=O)[C@@H](NC(=O)[C@H](CCCCN)NC(=O)[C@H](Cc1c[nH]c2ccccc12)NC(=O)[C@@H](N)CCCN=C(N)N)[C@@H](C)CC)[C@@H](C)CC)C(C)C)C(C)C)C(=O)N[C@H](C(=O)N[C@@H](CCCCN)C(=O)N[C@@H](C)C(N)=O)[C@@H](C)CC [RWKIAKKIEKVGRNVRDGIIKA]

MIC [26]: 2 µM (≈ 5.31 µg/mL)
MIC [27]: 2 µM (≈ 5.31 µg/mL)
MIC [28]: 2 µM (≈ 5.31 µg/mL)
MIC [29]: ≥ 64 µM
MIC [30]: 1 µM (≈ 2.65 µg/mL)
MIC [31]: 4 µM (≈ 10.6 µg/mL)
MIC [32]: 2 µM (≈ 5.31 µg/mL)
MIC [33]: 2 µM (≈ 5.31 µg/mL)
MIC [34]: 8 µM (≈ 21.2 µg/mL)
MIC [35]: 8 µM (≈ 21.2 µg/mL)
SMILES: CC[C@H](C)[C@H](NC(=O)CNC(=O)[C@H](CC(=O)O)NC(=O)[C@H](CCCN=C(N)N)NC(=O)[C@@H](NC(=O)[C@H](CC(N)=O)NC(=O)[C@H](CCCN=C(N)N)NC(=O)CNC(=O)[C@@H](NC(=O)[C@H](CCCCN)NC(=O)[C@H](CCC(=O)O)NC(=O)[C@@H](NC(=O)[C@H](CCCCN)NC(=O)[C@H](CCCCN)NC(=O)[C@H](Cc1ccccc1)NC(=O)[C@@H](NC(=O)[C@H](CCCCN)NC(=O)[C@H](Cc1c[nH]c2ccccc12)NC(=O)[C@@H](N)CCCN=C(N)N)[C@@H](C)CC)[C@@H](C)CC)C(C)C)C(C)C)C(=O)N[C@H](C(=O)N[C@@H](CCCCN)C(=O)N[C@@H](C)C(N)=O)[C@@H](C)CC [RWKIFKKIEKVGRNVRDGIIKA]
